Test [1] has as its target T1, Recombinant (1-346) HPK1 (h) (Homo sapiens, UniProt Q92918).
T1 construct: Recombinant (1-346) HPK1 (h) is incubated with 8 mM MOPS pH 7.0
T1 sequence (Q92918 1-346): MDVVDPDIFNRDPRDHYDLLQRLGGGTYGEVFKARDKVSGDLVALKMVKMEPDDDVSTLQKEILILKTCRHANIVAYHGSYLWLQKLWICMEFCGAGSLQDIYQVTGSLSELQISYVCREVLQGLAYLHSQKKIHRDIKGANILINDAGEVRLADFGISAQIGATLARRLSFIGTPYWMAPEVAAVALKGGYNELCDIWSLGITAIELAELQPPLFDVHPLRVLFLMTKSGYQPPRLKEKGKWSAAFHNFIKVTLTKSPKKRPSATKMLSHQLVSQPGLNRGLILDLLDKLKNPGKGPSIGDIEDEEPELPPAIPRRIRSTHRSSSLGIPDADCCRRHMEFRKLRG
The experiment in a line: HPK1 Human STE Kinase Enzymatic Radiometric Assay. The class given is biochemical. Particulars: read-out: HPK1 IC50 nM Range*. The method, then: A stock solution of 10 mM of test compound is prepared in DMSO. The compound plate was prepared by 3-fold and 9-point serial dilutions. […] The reaction is initiated by The addition of the Mg/ATP mix. After incubation for 40 minutes at RT, the reaction is stopped by the addition of phosphoric acid to a concentration of 0.5%.

Another test deals with Lck (h) (Homo sapiens, UniProt P06239). Put plainly: Lck Human  Kinase Enzymatic Radiometric Assay. The test is classed as biochemical. Particulars: read-out: Lck IC50 nM Range*. In short, it runs like this: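 Substrate 33P-incorporation measured by scintillation counting after spotting on P30 filtermat and phosphoric acid washes. Human Lck reacted 40 min at RT in 50 mM Tris pH 7.5 with 10 mM MgAcetate, [gamma-33P]-ATP, 250 uM Cdc2 peptide, 0.1 mM EGTA and 0.1 mM Na3VO4.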
Sequence of Lck (h) (P06239 whole entry): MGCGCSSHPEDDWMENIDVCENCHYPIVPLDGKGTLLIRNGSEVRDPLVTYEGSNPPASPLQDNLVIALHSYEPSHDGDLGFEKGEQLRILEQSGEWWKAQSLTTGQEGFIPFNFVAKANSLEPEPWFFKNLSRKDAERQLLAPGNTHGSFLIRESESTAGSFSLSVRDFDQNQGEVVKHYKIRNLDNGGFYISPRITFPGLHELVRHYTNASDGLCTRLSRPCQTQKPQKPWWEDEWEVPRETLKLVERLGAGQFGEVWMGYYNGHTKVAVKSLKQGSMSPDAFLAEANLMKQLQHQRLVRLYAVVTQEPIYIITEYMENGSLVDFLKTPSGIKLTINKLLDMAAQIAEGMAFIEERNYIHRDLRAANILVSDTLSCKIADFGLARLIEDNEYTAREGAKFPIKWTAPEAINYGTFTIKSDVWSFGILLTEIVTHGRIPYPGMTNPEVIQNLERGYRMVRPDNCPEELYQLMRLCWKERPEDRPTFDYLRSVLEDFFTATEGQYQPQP

With `C[C@H]1CC(Oc2ccc(-c3cc(-c4ccc5c(c4)CCNC5=O)c(N)nc3F)cc2)C[C@H](C)N1` (stereo partly drawn) [I-144, 6-(2-amino-5-(4-(((2S,6S)-2,6-dimethylpiperidin-4-yl)oxy)phenyl)-6-fluoropyridin-3-yl)-3,4-dihydroisoquinolin-1(2H)-one], the figures for the IC50 (in test [1]; at Lck (h)) were 0.1 to 10 nM and 101 to 1000 nM, respectively.
In the same order, the values of `CN(C)Cc1cc(-c2cc(-c3ccc4c(c3)CCNC4=O)c(N)nc2F)ccc1N1CCN(CCCC(F)F)CC1` [I-445, 6-(2-amino-5-(4-(4-(4,4-difluorobutyl)piperazin-1-yl)-3-((dimethylamino)methyl)phenyl)-6-fluoropyridin-3-yl)-3,4-dihydroisoquinolin-1(2H)-one] are 0.1 to 10 nM and over 1000 nM.
Take `Nc1nc(F)c(-c2ccc(OC3CCN(CC(F)(F)F)CC3)c(C(F)(F)F)c2)cc1-c1ccc2c(c1)CCNC2=O` [I-201, 6-(2-amino-6-fluoro-5-(4-((1-(2,2,2-trifluoroethyl)piperidin-4-yl)oxy)-3-(trifluoromethyl)phenyl)pyridin-3-yl)-3,4-dihydroisoquinolin-1(2H)-one]: the IC50 was 101 to 1000 nM in test [1] and over 1000 nM on Lck (h).
In the same order, the values of `Cc1c[nH]c(=O)c2ccc(-c3cc(-c4ccc(N5CCN(CC6CC6)CC5)cc4)c(F)nc3N)cc12` [I-457, 6-(2-amino-5-(4-(4-(cyclopropylmethyl)piperazin-1-yl)phenyl)-6-fluoropyridin-3-yl)-4-methylisoquinolin-1(2H)-one] are 0.1 to 10 nM and over 1000 nM.
In the same order, the values of `Nc1nc(F)c(-c2ccc(OC3CN(C4COC4)C3)cc2)cc1-c1ccc2c(c1)CCNC2=O` [I-318, 6-(2-amino-6-fluoro-5-(4-((1-(oxetan-3-yl)azetidin-3-yl)oxy)phenyl)pyridin-3-yl)-3,4-dihydroisoquinolin-1(2H)-one] are 11 to 100 nM and over 1000 nM.
In the same order, the values of `COc1cc(OC2CCN(C(C)C)CC2)ccc1-c1cc(-c2ccc3c(c2)CCNC3=O)c(N)nc1F` [I-272, 6-(2-amino-6-fluoro-5-(4-((1-isopropylpiperidin-4-yl)oxy)-2-methoxyphenyl)pyridin-3-yl)-3,4-dihydroisoquinolin-1(2H)-one] are 0.1 to 10 nM and over 1000 nM.
`Nc1nc(F)c(-c2ccc(N3CCSCC3)cc2)cc1-c1cc2c(cc1F)C(=O)NCC2` [I-347, 6-(2-amino-6-fluoro-5-(4-thiomorpholinophenyl)pyridin-3-yl)-7-fluoro-3,4-dihydroisoquinolin-1(2H)-one]: the IC50 in test [1] was 0.1 to 10 nM; on Lck (h), over 1000 nM.
Taken in the same sequence, the figures for `CCN1CCN(c2ccc(-c3cc(-c4ccc5c(c4)C(C)(C)CNC5=O)c(N)nc3F)cc2)CC1` [I-69, 6-(2-amino-5-(4-(4-ethylpiperazin-1-yl)phenyl)-6-fluoropyridin-3-yl)-4,4-dimethyl-3,4-dihydroisoquinolin-1(2H)-one] were 0.1 to 10 nM and 101 to 1000 nM.
Turning to `COCCN1CCC(c2ccc(-c3cc(-c4cc5c(cc4F)C(=O)NCC5)c(N)nc3F)cc2)CC1` [I-241, 6-(2-amino-6-fluoro-5-(4-(1-(2-methoxyethyl)piperidin-4-yl)phenyl)pyridin-3-yl)-7-fluoro-3,4-dihydroisoquinolin-1(2H)-one], the IC50 was 0.1 to 10 nM in test [1] and over 1000 nM on Lck (h).
In the same order, the values of `Nc1nc(F)c(-c2ccc(C3CCCCN3CC(F)(F)F)cc2)cc1-c1ccc2c(c1)CCNC2=O` (centres unmarked) [I-93, 6-(2-amino-6-fluoro-5-(4-(1-(2,2,2-trifluoroethyl)piperidin-2-yl)phenyl)pyridin-3-yl)-3,4-dihydroisoquinolin-1(2H)-one] are 11 to 100 nM and over 1000 nM.
Taken in the same sequence, the figures for `Nc1nc(F)c(-c2ccc3c(c2)CCNC3)cc1-c1cc2c(cc1F)C(=O)NCC2` [I-287, 2,2,2-trifluoroacetate] were 0.1 to 10 nM and over 1000 nM.
In the same order, the values of `Nc1nc(F)c(-c2ccc3c(c2)CNCC3)cc1-c1ccc2c(c1)CCNC2=O` [I-334, 6-(2-amino-6-fluoro-5-(1,2,3,4-tetrahydroisoquinolin-7-yl)pyridin-3-yl)-3,4-dihydroisoquinolin-1(2H)-one 2,2,2-trifluoroacetate] are 11 to 100 nM and over 1000 nM.
As for `Nc1nc(F)c(-c2ccc(OC3CCNCC3)c(F)c2)cc1-c1ccc2c(c1)CCNC2=O` [I-179, 6-(2-amino-6-fluoro-5-(3-fluoro-4-(piperidin-4-yloxy)phenyl)pyridin-3-yl)-3,4-dihydroisoquinolin-1(2H)-one], the figures for the IC50 (in test [1]; at Lck (h)) were 0.1 to 10 nM and over 1000 nM, respectively.
In the same order, the values of `CN1CC=C(c2ccc(-c3cc(-c4ccc5c(c4)CCNC5=O)c(N)nc3Cl)cc2)CC1` [I-230, 6-(2-amino-6-chloro-5-(4-(1-methyl-1,2,3,6-tetrahydropyridin-4-yl)phenyl)pyridin-3-yl)-3,4-dihydroisoquinolin-1(2H)-one] are 11 to 100 nM and over 1000 nM.
Taken in the same sequence, the figures for `CS(=N)(=O)c1ccc(-c2cc(-c3ccc4c(c3)CCNC4=O)c(N)nc2F)cc1` (centres unmarked) [I-86, 6-(2-amino-6-fluoro-5-(4-(S-methylsulfonimidoyl)phenyl)pyridin-3-yl)-3,4-dihydroisoquinolin-1(2H)-one] were 0.1 to 10 nM and over 1000 nM.
In the same order, the values of `CCN1CCC(c2ccc(-c3cc(-c4ccc5c(c4)CCNC5=O)c(N)nc3F)cc2)CC1` [I-53, 6-(2-amino-5-(4-(1-ethylpiperidin-4-yl)phenyl)-6-fluoropyridin-3-yl)-3,4-dihydroisoquinolin-1(2H)-one] are 0.1 to 10 nM and over 1000 nM.
As to `Nc1nc(F)c(-c2ccc(N3CCNCC3)cc2)cc1-c1cc2c(cc1F)C(=O)NCC2` [I-172, 6-(2-amino-6-fluoro-5-(4-(piperazin-1-yl)phenyl)pyridin-3-yl)-7-fluoro-3,4-dihydroisoquinolin-1(2H)-one 2,2,2-trifluoroacetate], the IC50 was 0.1 to 10 nM in test [1] and over 1000 nM at Lck (h).
Taken in the same sequence, the figures for `Nc1nc(F)c(-c2ccc(OC3CN(CC4CC4)C3)cc2)cc1-c1ccc2c(c1)CCNC2=O` [I-321, 6-(2-amino-5-(4-((1-(cyclopropylmethyl)azetidin-3-yl)oxy)phenyl)-6-fluoropyridin-3-yl)-3,4-dihydroisoquinolin-1(2H)-one] were 0.1 to 10 nM and over 1000 nM.
In the same order, the values of `CC(C)N1CCC2(CC1)OCc1cc(-c3cc(-c4ccc5c(c4)CCNC5=O)c(N)nc3F)ccc1O2` [I-218, 6-(2-amino-6-fluoro-5-(1′-isopropyl-4H-spiro[benzo[d][1,3]dioxine-2,4′-piperidin]-6-yl)pyridin-3-yl)-3,4-dihydroisoquinolin-1(2H)-one] are 0.1 to 10 nM and over 1000 nM.
For `CCN1CCC(c2ccc(-c3cc(-c4cc5c(cc4F)C(=O)NCC5)c(N)nc3F)cc2)CC1` [I-245, 6-(2-amino-5-(4-(1-ethylpiperidin-4-yl)phenyl)-6-fluoropyridin-3-yl)-7-fluoro-3,4-dihydroisoquinolin-1(2H)-one], the IC50 in test [1] is 0.1 to 10 nM; on Lck (h) it was over 1000 nM.
In the same order, the values of `Nc1nc(F)c(-c2ccc(S(=O)(=O)N3CCOCC3)cc2)cc1-c1ccc2c(c1)CCNC2=O` [I-98, 6-(2-amino-6-fluoro-5-(4-(morpholinosulfonyl)phenyl)pyridin-3-yl)-3,4-dihydroisoquinolin-1(2H)-one] are 11 to 100 nM and over 1000 nM.
Taken in the same sequence, the figures for `CC(C)N1C[C@H]2C[C@@]2(c2ccc(-c3cc(-c4ccc5c(c4)CCNC5=O)c(N)nc3F)cc2)C1` [I-110, 6-(2-amino-6-fluoro-5-(4-((1R,5S)-3-isopropyl-3-azabicyclo[3.1.0]hexan-1-yl)phenyl)pyridin-3-yl)-3,4-dihydroisoquinolin-1(2H)-one] were 0.1 to 10 nM and over 1000 nM.
In the same order, the values of `CC(C)S(=O)(=O)c1ccc(-c2cnc(N)c(-c3ccc4c(c3)CCNC4=O)c2F)cc1` [I-3, 6-(2-amino-4-fluoro-5-(4-(isopropylsulfonyl)phenyl)pyridin-3-yl)-3,4-dihydroisoquinolin-1(2H)-one] are 11 to 100 nM and over 1000 nM.
For `Nc1nc(F)c(-c2ccc(N3CCN(CC4CC4)CC3)cc2)cc1-c1cc(F)c2c(c1)CCNC2=O` [I-307, 6-(2-amino-5-(4-(4-(cyclopropylmethyl)piperazin-1-yl)phenyl)-6-fluoropyridin-3-yl)-8-fluoro-3,4-dihydroisoquinolin-1(2H)-one], the results for the IC50 (in test [1]; at Lck (h)) were 0.1 to 10 nM and over 1000 nM, respectively.
Taken in the same sequence, the figures for `CC(C)N1CCN(c2ccc(-c3cc(-c4ccc5c(c4)CCNC5=O)c(N)nc3F)cc2)CC1C` (centres unmarked) [I-278, 6-(2-amino-6-fluoro-5-(4-(4-isopropyl-3-methylpiperazin-1-yl)phenyl)pyridin-3-yl)-3,4-dihydroisoquinolin-1(2H)-one] were 0.1 to 10 nM and over 1000 nM.
